# Measured values as given in US20050261349A1, “Medicine for prevention or treatment of diabetes” (priority 2004, published 2005).
# System: C57BL/KsJ db/db mice
# Assay: Hypoglycemic effect of single or combined oral administration in db/db mice (plasma glucose concentration)
# Type: in vivo, mouse
# Conditions: 14th day, 2 hours after oral administration; for Decreasing rate (of plasma glucose concentration vs control group): calculated from group means vs control group; for Plasma glucose concentration: mean±standard deviation for 6 mice, control group 519 ± 69
# Description: As test animals, C57BL/KsJ db/db mice were used, which were created in Jackson Laboratory (USA) and known as an obesity, hyperlipemia, hyperinsulinemia, and insulin-resistant model (Journal of Clinical Investigation, 85, pp 962-967, 1990). Blood was collected from the orbital venous plexus of each 7-week-old db/db mouse using a heparin-treated capillary tube, and centrifugation was performed to collect plasma. Thereafter, the plasma glucose concentration (Glucose CII-Test Wako (Wako Pure Chemical Industries, Ltd.)), the insulin concentration (Lebis Insulin Kit: for mouse-T (SHIBAYAGI)), and the triglyceride concentration (Triglyceride E-Test Wako (Wako Pure Chemical Industries, Ltd.)) were measured for classification. The classification was performed so that distribution of each measurement item is uniform for each group by block allocation based on many variables in which the plasma glucose concentration is most emphasized using the measured values of the plasma glucose concentration, the body weight, the insulin concentration, and the triglyceride concentration. […] Two hours after the administration, blood was collected from the orbital venous plexus, and the plasma thereof was collected to measure the plasma glucose concentration. […] Each plasma glucose concentration is expressed as mean±standard deviation for 6 mice of each group. Each decreasing rate is calculated from ((mean of plasma glucose concentration of control group)−(mean of plasma glucose concentration of each group))/(mean of plasma glucose concentration of control group)×100, while each relative index is calculated from (mean of plasma glucose concentration of each group)/(mean of plasma glucose concentration of control group).
compound,measurement,setting,value
COc1ccc(Cl)cc1C(=O)NCCc1ccc(S(=O)(=O)NC(=O)NC2CCCCC2)cc1 [Glibenclamide],Relative index (mean plasma glucose of group / mean of control group),,0.79
same,Decreasing rate (of plasma glucose concentration vs control group),,21%
same,Decreasing rate (of plasma glucose concentration vs control group),listed as glibenclamide,21%
same,Plasma glucose concentration,,412 ± 153 mg/dL
"O=C([O-])C(Cl)(Cl)CCCCCCCCCCc1ccc(Cl)cc1.[Na+] [sodium 2,2-dichloro-12-(4-chlorophenyl)-dodecanoate]",Relative index (mean plasma glucose of group / mean of control group),,0.49
same,Decreasing rate (of plasma glucose concentration vs control group),,51%
same,Decreasing rate (of plasma glucose concentration vs control group),"listed as sodium 2,2-dichloro-12-(4-chlorophenyl)-dodecanoate",51%
same,Plasma glucose concentration,,253 ± 75 mg/dL
